Data taken from patent US4552882A, “7-(1-Pyrrolyl) derivatives of 1-ethyl-1,4-dihydro-4-oxoquinoline-3-carboxylic acids and 1-ethyl-1,4-dihydro-4-oxo-1,8-naphthyridine-3-carboxylic acids and their use as antimicrobial agents” (Provesan, SA, priority 1983, dated 1985).
Values after ≈ are worked out from the molar mass of the structure shown.

Columns and labels:
Test in all cases: MIC in vitro
Assay type in all cases: cell-based
[1] = system: Bacillus subtilis ATCC 6633; details: ATCC6633, Dextrose agar, 37° C., 20 hours
Description: (§1) (G. L. Daquet and Y. A. Chabbect, Techniques en bacteriologie (Bacteriological techniques), vol. 3, Flammarion Medecine Sciences, Paris, 1972 and W. B. Hugo and A. D. Rusell, Pharmaceutical Microbiology, Blackwell Scientific Publications, London, (1977)). Antibiotic medium no. 1 (seed agar) (Oxoid CM 327) Tryptone-soya broth (Oxoid CM 129) Ringer's physiological solution 1/4 (oxoid BR 52) Dextrose agar (BBL-11165) 0.1 N NaOH "Bacillus subtilis" ATCC 6633 Each of the microorganisms is seeded by streaking in tubes of Antibiotic medium No. 1 (seed agar), which are then incubated at 37° C. for 20 hours. Using a culture loop, the cultures are then seeded in tryptone-soyabroth and incubated at 37° C. for 20 hours. The culture obtained is diluted to 1/4 with Ringer's physiological solution, so as to obtain a standardized suspension of 10^7 -10^9 cfu/ml for each organism. Starting from a solution of 1,000 μg/ml in 0.1 N NaOH, each product is diluted in Dextrose agar (previously melted and maintained at 50° C.), with successive dilutions so as to obtain the following concentrations: 64--32--16--8--4--2--1--0.5--0.25--0.125 μg of derivative/ml medium. For each product, the solution of each concentration is subsequently distributed into Petri dishes 10 cm in diameter, with 10 ml of medium per dish and the same number of dishes as microorganisms to be tested. As soon as the medium has cooled, the dishes are seeded with the inoculations using 0.4 ml of inoculation per dish. They are spread with a Driglasky loop and the supernatant is removed. The seeded dishes are incubated at 37° C. for 20 hours.

[2] = system: Citrobacter freundii ATCC 11606; details: ATCC11606, Dextrose agar, 37° C., 20 hours
Description: as §1, with “"Citrobacter freundii"” for “"Bacillus subtilis"”, “11606” for “6633”

Sarcina lutea ATCC 9341 = details: Micrococcus luteus, ATCC9341, Dextrose agar, 37° C., 20 hours
Description: as §1, with “"Sarcina Lutea"” for “"Bacillus subtilis"”, “9341” for “6633”

Compound	MIC [1]	MIC [2]	MIC (Sarcina lutea ATCC 9341)
CCn1cc(C(=O)O)c(=O)c2ccc(-n3cccc3)cc21 [Example 1, 7-(1-pyrrolyl)-1-ethyl-1,4-dihydro-4-oxo-3-quinolinecarboxylic acid]	< 0.125 µg/mL	16 µg/mL (≈ 56.7 µM)	16 µg/mL (≈ 56.7 µM)
CCn1cc(C(=O)O)c(=O)c2cc(F)c(-n3cccc3)nc21 [Example 4, 1-ethyl-1,4-dihydro-4-oxo-6-fluoro-7-(1-pyrrolyl)-1,8-naphthyridine-3-carboxylic acid]	0.03 µg/mL (≈ 0.0996 µM)	4 µg/mL (≈ 13.3 µM)	4 µg/mL (≈ 13.3 µM)
CCn1cc(C(=O)O)c(=O)c2cc(F)c(-n3cccc3)cc21 [Example 2, 6-fluoro-7-(1-pyrrolyl)-1-ethyl-1,4-dihydro-4-oxo-3-quinolinecarboxylic acid]	< 0.125 µg/mL	8 µg/mL (≈ 26.6 µM)	16 µg/mL (≈ 53.3 µM)
CCn1cc(C(=O)O)c(=O)c2ccc(-n3cccc3)nc21 [Example 3, 1-ethyl-1,4-dihydro-4-oxo-7-(1-pyrrolyl)-1,8-naphthyridine-3-carboxylic acid]	0.25 µg/mL (≈ 0.882 µM)	32 µg/mL (≈ 113 µM)	8 µg/mL (≈ 28.2 µM)
CCn1cc(C(=O)O)c(=O)c2cnc(N3CCNCC3)nc21 [Pipemidic acid, reference compound]	8 µg/mL (≈ 26.4 µM)	4 µg/mL (≈ 13.2 µM)	> 64 µg/mL
